Consider 26 molecules from US10538512B2, “Aminoacylindazole immunomodulators for treatment of autoimmune diseases” (The Rockefeller University, priority 2016, dated 2020).

In the test the target is T1, Human FXIIa (Homo sapiens, UniProt P00748).
T1 construct: active coagulation factor XII (FXIIa); purchased Enzyme Research Labs
T1 sequence (P00748 373-615 limits assumed): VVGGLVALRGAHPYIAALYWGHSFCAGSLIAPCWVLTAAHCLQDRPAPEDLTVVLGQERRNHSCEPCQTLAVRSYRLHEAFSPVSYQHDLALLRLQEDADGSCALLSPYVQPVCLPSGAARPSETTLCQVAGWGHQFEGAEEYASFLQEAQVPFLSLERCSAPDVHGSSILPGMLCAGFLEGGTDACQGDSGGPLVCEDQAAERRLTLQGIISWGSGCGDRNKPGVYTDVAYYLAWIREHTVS
T1 sequence (P00748 20-372 partner limits assumed): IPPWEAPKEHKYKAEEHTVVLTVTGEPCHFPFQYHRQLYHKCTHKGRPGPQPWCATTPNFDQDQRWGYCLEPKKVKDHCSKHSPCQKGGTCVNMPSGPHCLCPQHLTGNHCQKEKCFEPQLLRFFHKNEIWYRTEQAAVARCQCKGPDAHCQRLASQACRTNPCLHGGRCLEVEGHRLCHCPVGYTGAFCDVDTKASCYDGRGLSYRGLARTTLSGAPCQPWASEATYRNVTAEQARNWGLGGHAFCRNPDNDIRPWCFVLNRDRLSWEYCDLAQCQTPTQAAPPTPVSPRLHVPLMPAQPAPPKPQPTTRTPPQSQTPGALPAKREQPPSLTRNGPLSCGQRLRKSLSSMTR
The experiment in a line: Factor XIIa (FXIIa) inhibitory activity, chromogenic substrate assay. It counts as biochemical. The conditions noted are these: Human FXIIa 12.5 nM, Pefachrome XIIa 400 μM, 10 min preincubation. Here is the method: Factor XIIa (FXIIa) Inhibitory Activity:
In a 96-well clear bottom plate, 80 μl of assay buffer was added to each well. Assay buffer consists of 0.5× Hank's Balanced Salt Solution (Invitrogen), buffered with 25 mM HEPES pH 7.4 (Invitrogen) and 0.5× Tris-buffered saline with Tween-20 0.05% (Santa Cruz Biotechnology). Test compounds were first dissolved in DMSO (Sigma) and then 4 μl were added to test wells containing assay buffer. Serial dilutions using an automated multi-channel pipette were used to generate a concentration range of approximately 1-100 μM. […] 80 μl of this enzyme solution was added to the assay wells. The enzyme/compound mixtures were incubated for 10 minutes at room temperature. Chromogenic substrate (Pefachrome XIIa; Enzyme Research Labs) was added to assay wells at a final concentration of 400 μM. The assay plate was spun for 1 minute at 1500 g and then read at 37° C. in a SpectraMax M2 plate reader (λ=405 nm). Activity was quantified as the rate of change in absorbance, which corresponds to the rate of substrate cleavage.
Regarding `Nc1nn(C(=O)[C@H]2CCNc3ccc(F)cc32)c2c1C[C@H](O)CC2` (relative stereo) [Example 131, ((5R*)-3-amino-5-hydroxy-4,5,6,7-tetrahydro-2H-indazol-1-yl)((4S*)-6-fluoro-1,2,3,4-tetrahydroquinolin-4-yl)methanone], the IC50 (in general, the midpoint of a concentration-inhibition curve) was greater than 90 µM.
The result for `Nc1nn(C(=O)[C@@H]2CCNc3ccc(F)cc32)c2c1C[C@H](O)CC2` (relative stereo) [Example 132, ((5R*)-3-amino-5-hydroxy-4,5,6,7-tetrahydro-2H-indazol-1-yl)((4R*)-6-fluoro-1,2,3,4-tetrahydroquinolin-4-yl)methanone] reads greater than 90 µM; that for `Cc1cccc2c1NCC[C@@H]2C(=O)n1nc2c(c1N)C[C@@H](N)CC2` (relative stereo) [Example 213, ((5S*)-3,5-diamino-4,5,6,7-tetrahydroindazol-2-yl)((4S*)-8-methyl-1,2,3,4-tetrahydroquinolin-4-yl)methanone], 0.06 µM; that for `Nc1c2c(nn1C(=O)[C@H]1CCNc3c(Cl)cccc31)CC[C@H](N)C2` (relative stereo) [Example 215, ((4S*)-8-chloro-1,2,3,4-tetrahydroquinolin-4-yl)((5S*)-3,5-diamino-4,5,6,7-tetrahydroindazol-2-yl)methanone], 0.07 µM.
The result for `Nc1c2c(nn1C(=O)[C@@H]1CCNc3c(Cl)cccc31)CC[C@H](N)C2` (relative stereo) [Example 216, ((4R*)-8-chloro-1,2,3,4-tetrahydroquinolin-4-yl)((5S*)-3,5-diamino-4,5,6,7-tetrahydroindazol-2-yl)methanone] reads 3 µM.
The result for `Cc1csc(C)c1C(=O)n1nc2c(c1N)CCCC2` (single isomer, unassigned) [Example 16, (3-Amino-4,5,6,7-tetrahydroindazol-2-yl)(2,4-dimethylthiophen-3-yl)methanone] reads 15 µM; that for `CN1CCC(C(=O)n2nc3c(c2N)CCCC3)c2ccccc21` (single isomer, unassigned) [Example 25, (3-Amino-4,5,6,7-tetrahydroindazol-2-yl)(1-methyl-1,2,3,4-tetrahydroquinolin-4-yl)methanone], 0.3 µM; that for `Nc1c2c(nn1C(=O)c1cccc3c1CC(=O)N3)CCCC2` (single isomer, unassigned) [Example 64, 4-(3-amino-4,5,6,7-tetrahydro-2H-indazole-2-carbonyl)indolin-2-one], 0.2 µM.
`CCc1cc2c(C(=O)n3nc4c(c3N)CCCC4)cccc2n1C` (single isomer, unassigned) [Example 66, (3-amino-4,5,6,7-tetrahydroindazol-2-yl)(2-ethyl-1-methyl-1H-indol-4-yl)methanone] yielded an IC50 of 0.01 µM.
Turning to `CN1CCC(C(=O)n2nc3c(c2N)CCCC3)c2ccccc21` (single isomer, unassigned) [Example 72, (S*)-(3-amino-4,5,6,7-tetrahydroindazol-2-yl)(1-methyl-1,2,3,4-tetrahydroquinolin-4-yl)methanone], 0.15 µM corresponded to half-maximal inhibition (IC50).
The result for `Nc1c2c(nn1C(=O)C1CCNc3ccccc31)CCCC2` (single isomer, unassigned) [Example 78, (R*)-(3-amino-4,5,6,7-tetrahydroindazol-2-yl)(1,2,3,4-tetrahydroquinolin-4-yl)methanone] reads 0.15 µM.
The result for `CCc1cc2c([nH]1)CCCC2C(=O)n1nc2c(c1N)CCCC2` (single isomer, unassigned) [Example 83, (S*)-(3-amino-4,5,6,7-tetrahydroindazol-2-yl)(2-ethyl-4,5,6,7-tetrahydro-1H-indol-4-yl)methanone] reads 0.02 µM; that for `CCc1cc2c([nH]1)CCCC2C(=O)n1nc2c(c1N)CCCC2` (single isomer, unassigned) [Example 84, (R*)-(3-amino-4,5,6,7-tetrahydroindazol-2-yl)(2-ethyl-4,5,6,7-tetrahydro-1H-indol-4-yl)methanone], 3.3 µM; that for `Nc1c2c(nn1C(=O)C1CCCc3[nH]ccc31)CCCC2` (single isomer, unassigned) [Example 94, (S*)-(3-amino-4,5,6,7-tetrahydroindazol-2-yl)(4,5,6,7-tetrahydro-1H-indol-4-yl)methanone], 0.25 µM.
The result for `Cn1ccc2c1CCCC2C(=O)n1nc2c(c1N)CCCC2` (single isomer, unassigned) [Example 97, (S*)-(3-amino-4,5,6,7-tetrahydroindazol-2-yl)(1-methyl-4,5,6,7-tetrahydro-1H-indol-4-yl)methanone] reads 0.4 µM; that for `Nc1c2c(nn1C(=O)C1CCCc3[nH]c(Cl)cc31)CCCC2` (single isomer, unassigned) [Example 106, (S*)-(3-amino-4,5,6,7-tetrahydro-2H-indazol-2-yl)(2-chloro-4,5,6,7-tetrahydro-1H-indol-4-yl)methanone], 0.04 µM; that for `Nc1c2c(nn1C(=O)C1CCCc3[nH]c(Cl)cc31)CCCC2` (single isomer, unassigned) [Example 107, (R*)-(3-amino-4,5,6,7-tetrahydro-2H-indazol-2-yl)(2-chloro-4,5,6,7-tetrahydro-1H-indol-4-yl)methanone], 8 µM.
For `Nc1c2c(nn1C(=O)C1CCCc3[nH]c(Br)cc31)CCCC2` (single isomer, unassigned) [Example 108, (S*)-(3-amino-4,5,6,7-tetrahydroindazol-2-yl)(2-bromo-4,5,6,7-tetrahydro-1H-indol-4-yl)methanone], it took 0.07 µM to reach half-maximal inhibition (IC50). Against the preceding molecule, the IC50 is about 110-fold lower.
The result for `Nc1c2c(nn1C(=O)[C@@H]1CCNc3ccc(F)cc31)CC[C@@H](O)C2` (single isomer, unassigned) [Example 130, ((5R*)-3-amino-5-hydroxy-4,5,6,7-tetrahydro-2H-indazol-2-yl)(4(R*)-6-fluoro-1,2,3,4-tetrahydroquinolin-4-yl)methanone] reads 45 µM; that for `Nc1c2c(nn1C(=O)[C@H]1CCNc3ccc(F)cc31)CC[C@H](O)C2` (single isomer, unassigned) [Example 133, ((5S*)-3-amino-5-hydroxy-4,5,6,7-tetrahydroindazol-2-yl)((4S*)-6-fluoro-1,2,3,4-tetrahydroquinolin-4-yl)methanone], 33 µM.
Molecule `Nc1nn(C(=O)[C@H]2CCNc3ccc(F)cc32)c2c1C[C@@H](O)CC2` (single isomer, unassigned) [Example 135, ((5S*)-3-amino-5-hydroxy-4,5,6,7-tetrahydro-1H-indazol-1-yl)((4S*)-6-fluoro-1,2,3,4-tetrahydroquinolin-4-yl)methanone] gave an IC50 of 24 µM.
The result for `Nc1nn(C(=O)[C@@H]2CCNc3ccc(F)cc32)c2c1C[C@@H](O)CC2` (single isomer, unassigned) [Example 136, ((5S*)-3-amino-5-hydroxy-4,5,6,7-tetrahydroindazol-1-yl)((4R*)-6-fluoro-1,2,3,4-tetrahydroquinolin-4-yl)methanone] reads greater than 90 µM.
The result for `Nc1c2c(nn1C(=O)[C@@H]1CCNc3ccc(F)cc31)CC[C@@H](F)C2` (single isomer, unassigned) [Example 138, ((5R*)-3-amino-5-fluoro-4,5,6,7-tetrahydroindazol-2-yl)((4R*)-6-fluoro-1,2,3,4-tetrahydroquinolin-4-yl)methanone] reads 16 µM.
Molecule `Nc1nn(C(=O)C2CCNc3ccc(F)cc32)c2c1CC(F)CC2` (single isomer, unassigned) [Example 139, ((5R*)-3-amino-5-fluoro-4,5,6,7-tetrahydroindazol-1-yl)((4RS)-6-fluoro-1,2,3,4-tetrahydroquinolin-4-yl)methanone] gave an IC50 of 85 µM.
The result for `Nc1c2c(nn1C(=O)[C@@H]1CCNc3ccc(F)cc31)CC[C@H](F)C2` (single isomer, unassigned) [Example 141, ((5S*)-3-amino-5-fluoro-4,5,6,7-tetrahydroindazol-2-yl)((4R*)-6-fluoro-1,2,3,4-tetrahydroquinolin-4-yl)methanone] reads 17 µM.
Molecule `Nc1nn(C(=O)C2CCNc3ccc(F)cc32)c2c1CC(F)CC2` (single isomer, unassigned) [Example 142, ((5S*)-3-amino-5-fluoro-4,5,6,7-tetrahydroindazol-1-yl)((4R/S)-6-fluoro-1,2,3,4-tetrahydroquinolin-4-yl)methanone] returned an IC50 of 65 µM.
